{"source": "patent US8017579B2", "about": "“Treatment of viral infections” (priority 2003, dated 2011)", "key": {"HSV1": {"test_system": "HSV1", "format": "cell-based, herpes simplex virus type 1", "conditions": "HSV1 plaque assay, Vero cells", "protocol": "African Green Monkey Kidney (Vero) cells were maintained in Eagle's minimum essential medium with Earle's salt (EMEM) and supplemented with 10% foetal calf serum (heat-inactivated), 4 mM L-glutamine, and 1% (v/v) nonessential amino acids, plus penicillin and streptomycin (100 IU/ml and 100 μg/ml, respectively) (maintenance medium referred to as 10% EMEM). The cells were incubated at 37° C. in a humidified atmosphere of air with 5% CO2.\nOn harvesting, monolayers were washed in phosphate-buffered saline (PBS), and dislodged by incubating with trypsin in PBS for 30 min, before inactivating trypsin by addition of an equal volume of 10% EMEM and centrifuging at 500 g (5 min, 4° C.). Cell pellets were resuspended in 10% EMEM, prior to cell counting and seeding of 24-well plates. For antiviral assays, medium containing only 0.5% FCS was used (referred to as 0.5% EMEM).\nThree separate passages of HSV1 virus were prepared by infecting Vero cells, and preparing semi-pure suspensions of virus from tissue culture supernatant and cell lysates, before freezing aliquots of virus at −85° C. Viral infectivity was assessed by carrying out plaque assays on serial dilutions of thawed aliquots (expressed in pfu/ml).\nPeptides were obtained in lyophilised form from a commercial supplier (AltaBioscience, University of Birmingham or Advanced Biomedical), and were produced at 5 micromole scale. N-terminals were protected by addition of an acetyl group, and the C-terminals were protected by addition of an amide group.\nSmall quantities of peptide were weighed in sterile Eppendorf tubes, before addition of sufficient 0.5% EMEM to produce a 1.5 mM stock solution, which was frozen at −20° C. in aliquots.\n(§1) Vero cells were seeded at 125,000 cells per well in 10% EMEM, and were incubated overnight resulting in confluent monolayers. Peptides were diluted in 0.5% EMEM to give 2× final desired concentration, and 100 μl aliquots were arranged on 96-well plates in arrangement to be used for 24-well plate; control wells containing normal 0.5% EMEM were also prepared. Virus stocks (p3) were thawed, and diluted in 0.5% EMEM such that there were around 100 pfu in 100 μl. Each 24-well plate was inoculated separately. Firstly 100 μl of virus stock was added to the peptide or control medium arranged on a 96-well plate. This was incubated at 37° C. for ten minutes before inoculation. Medium was removed from four wells of a 24-well plate containing confluent Vero, and the 200 μl inoculum added to the appropriate well. Once all wells were treated, the 24-well plate was incubated for a further 60-80 minutes. Finally the peptide-containing inoculum was removed, and 1 ml of 1% EMEM containing 1% carboxymethylcellulose was added to each well. Plates were incubated for a further 22 hours, before removal of overlay, and addition of 10% formaldehyde in PBS. After a further one hour incubation, fixative was removed, monolayers washed several times with tap water, and stained with carbol fuchsin solubilised in water. After 30 minutes stain was removed, and plates washed several times with tap water, before being air dried. Plaques were counted using an Olympus IX70 Inverting Microscope, and antiviral effect expressed as a percentage of the control value for each peptide concentration. The IC50 was calculated from plots of inhibitory effect against peptide concentration.\nThe methods employed were as described in Examples 1-4 expect peptides were prepared as 400 μM stocks in phosphate buffered saline (PBS)."}, "HIV isolate SF162": {"test_system": "HIV isolate SF162", "experiment": "HIV-1 infectious foci in NP2 glioma cells over-expressing CD4 and CCR5", "format": "cell-based", "conditions": "HIV isolate SF162, NP-2 glioma cells overexpressing CCR5, 0.1 to 10 micromolar", "protocol": "Similar experiments to those described in Example 2 were conducted to test the efficacy of the peptides according to the invention against HIV infection. The glioma cell line NP2 over-expressing both CD4 and the appropriate co-receptor (CCR5 or CXCR4) were maintained in DMEM supplemented with 10% FCS. 2×10^4 cells were plated per well of a 48-well plate 24 h prior to infection and grown at 37 C. The cells were then washed, and incubated in DMEM/FCS containing peptide concentrations ranging from 0.1 to 10 micromolar, at 37 C for 30 minutes. 200 focus-forming units of HIV-1 stocks were then added to each well, and the cells incubated at 37 C for a further 2 hours. The cells were then washed twice in PBS and fresh medium replaced. After 3 day's growth the cells were fixed in cold methanol:acetone, and stained in situ for expression of HIV-1 p24 using a monoclonal anti-p24 followed by a secondary anti-mouse beta-galactosidase conjugate. Expression was visualised by X-Gal staining and infectious foci enumerated by light-microscopy."}, "HSV2 clinical isolates": {"test_system": "HSV2 clinical isolates", "format": "cell-based, herpes simplex virus type 2", "protocol": "as §1\nPlaque assays were performed. The methodology was as described in previous Examples for HSV1 plaque assays (including usage of Vero cells) except HSV2 clinical isolates (provided by Prof. Anthony Hart of Liverpool University) were employed instead."}}}
{"substance": "Ac-WRWRKRWRKWRWRKRWRK-NH2 (N-terminus and C-terminus assumed) [GIN 33]", "values": [{"measurement": "antiviral activity against HSV1 (in words)", "setting": "HSV1", "value": "have antiviral activity"}, {"measurement": "anti-HIV action (in words)", "setting": "HIV isolate SF162", "value": "anti-HIV action"}, {"measurement": "IC50", "setting": "HSV2 clinical isolates", "value": 10, "unit": "µM"}]}
